These compounds were tested on WT Mtb Erdman strain (assay: Microplate Alamar Blue Assay (MABA), Mtb growth inhibition). Conditions: Mycobacterium tuberculosis, ERDMAN, 168 h, Middlebrook 7H9 media, 7 days at 37° C. in 5% CO2.
Type: cell-based, Mycobacterium tuberculosis

| Structure (SMILES) | IC50 |
| --- | --- |
| Cc1cc2c(NCCCc3ccccc3)nc(C3CCOC3)nc2s1 (centres unmarked) [Example 120, 6-methyl-N-(3-phenylpropyl)-2-(tetrahydrofuran-3-yl)thieno[2,3-d]pyrimidin-4-amine] | 3000 nM |
| Cc1cc2c(NCCCc3ccc(OC(F)(F)F)cc3)nc(-c3ccon3)nc2s1 [Example 121, 2-(isoxazol-3-yl)-6-methyl-N-(3-(4-(trifluoromethoxy)phenyl)propyl)thieno[2,3-d]pyrimidin-4-amine] | 130 nM |
| Cc1cc(-c2nc(NCCCc3ccc(OC(F)(F)F)cc3)c3cc(C)sc3n2)no1 [Example 122, 6-methyl-2-(5-methylisoxazol-3-yl)-N-(3-(4-(trifluoromethoxy)phenyl)propyl)thieno [2,3-d]pyrimidin-4-amine] | 190 nM |
| Cc1cc2c(NCCCc3ccc(OC(F)(F)F)cc3)nc(-c3ccccn3)nc2s1 [Example 123, 6-methyl-2-(pyridin-2-yl)-N-(3-(4-(trifluoromethoxy)phenyl)propyl)thieno [2,3-d]pyrimidin-4-amine] | 1800 nM |
| CSc1nc(NCCCc2ccc(OC(F)(F)F)cc2)c2cc(C)sc2n1 [Example 124, 6-methyl-2-(methylthio)-N-(3-(4-(trifluoromethoxy)phenyl)propyl) thieno[2,3-d]pyrimidin-4-amine] | 62 nM |
| Cc1cc2c(NCCCc3ccc(OC(F)(F)F)cc3)nc(-c3cnsc3)nc2s1 [Example 125, 2-(isothiazol-4-yl)-6-methyl-N-(3-(4-(trifluoromethoxy)phenyl)propyl)thieno [2,3-d]pyrimidin-4-amine] | 610 nM |
| Cc1cc2c(NCCCc3ccccc3)nc(-c3ccc(F)cc3)nc2s1 [Example 126, 2-(4-fluorophenyl)-6-methyl-N-(3-phenylpropyl)thieno [2,3-d]pyrimidin-4-amine] | 2600 nM |
| CCc1nc(NCCc2ccc(Cl)c(Cl)c2)c2cc(C)sc2n1 [Example 127, N-(3,4-dichlorophenethyl)-2-ethyl-6-methylthieno[2,3-d]pyrimidin-4-amine] | 2800 nM |
| Cc1cc2c(NCCCc3ccccc3)nc(-c3cscn3)nc2s1 [Example 128, 6-methyl-N-(3-phenylpropyl)-2-(thiazol-4-yl)thieno[2,3-d]pyrimidin-4-amine] | 660 nM |
| Cc1cc2c(NCCCc3ccccc3)nc(-c3nnc[nH]3)nc2s1 [Example 129, 6-methyl-N-(3-phenylpropyl)-2-(4H-1,2,4-triazol-3-yl)thieno[2,3-d]pyrimidin-4-amine] | 5600 nM |
| Cc1cc2c(NCCCc3ccccc3)nc(-c3cn[nH]c3)nc2s1 [Example 130, 6-methyl-N-(3-phenylpropyl)-2-(1H-pyrazol-4-yl)thieno[2,3-d]pyrimidin-4-amine] | 2200 nM |
| Cc1cc2c(NCCCc3ccccc3)nc(-n3ccnc3)nc2s1 [Example 131, 2-(1H-imidazol-1-yl)-6-methyl-N-(3-phenylpropyl)thieno [2,3-d]pyrimidin-4-amine] | 3000 nM |
| Cc1ccc(-c2nc(NCCCc3ccccc3)c3cc(C)sc3n2)o1 [Example 132, 6-methyl-2-(5-methylfuran-2-yl)-N-(3-phenylpropyl)thieno [2,3-d]pyrimidin-4-amine] | 6600 nM |
| Cc1cc2c(NCCCc3ccccc3)nc(-c3cnn(C)c3)nc2s1 [Example 133, 6-methyl-2-(1-methyl-1H-pyrazol-4-yl)-N-(3-phenylpropyl)thieno [2,3-d]pyrimidin-4-amine] | 270 nM |
| Cc1cc2c(NCCCc3ccccc3)nc(CC(C)C)nc2s1 [Example 134, 2-isobutyl-6-methyl-N-(3-phenylpropyl)thieno [2,3-d]pyrimidin-4-amine] | 440 nM |
| Cc1cc2c(NCCCc3ccccc3)nc(C(C)Cl)nc2s1 (centres unmarked) [Example 135, 2-(1-chloroethyl)-6-methyl-N-(3-phenylpropyl)thieno [2,3-d]pyrimidin-4-amine] | 230 nM |
| CCc1nc(NCCCc2ccc(OC(F)(F)F)c(C)c2)c2cc(C)sc2n1 [Example 136, 2-ethyl-6-methyl-N-(3-(3-methyl-4-(trifluoromethoxy)phenyl)propyl)thieno [2,3-d]pyrimidin-4-amine] | 690 nM |
| Cc1cc2c(NCCCc3ccccc3)nc(Cc3ccc(F)cc3)nc2s1 [Example 137, 2-(4-fluorobenzyl)-6-methyl-N-(3-phenylpropyl)thieno [2,3-d]pyrimidin-4-amine] | > 10000 nM |
| Cc1cc2c(NCCCc3ccccc3)nc(CCc3ccccc3)nc2s1 [Example 138, 6-methyl-2-phenethyl-N-(3-phenylpropyl)thieno [2,3-d]pyrimidin-4-amine] | > 10000 nM |
| Cc1cc(-c2nc(NCCCc3ccccc3)c3cc(C)sc3n2)c(C)o1 [Example 139, 2-(2,5-dimethylfuran-3-yl)-6-methyl-N-(3-phenylpropyl)thieno [2,3-d]pyrimidin-4-amine] | > 10000 nM |
| Cc1cc(Cc2nc(NCCCc3ccccc3)c3cc(C)sc3n2)no1 [Example 140, 6-methyl-2-((5-methylisoxazol-3-yl)methyl)-N-(3-phenylpropyl)thieno [2,3-d]pyrimidin-4-amine] | > 10000 nM |

| Structure (SMILES) | IC50 |
| --- | --- |
| Cc1nc(-c2nc(NCCCc3ccccc3)c3cc(C)sc3n2)co1 [Example 141, 6-methyl-2-(2-methyloxazol-4-yl)-N-(3-phenylpropyl)thieno [2,3-d]pyrimidin-4-amine] | 1200 nM |
| Cc1cc2c(NCCCc3ccccc3)nc(SCc3ccccc3)nc2s1 [Example 142, 2-(benzylthio)-6-methyl-N-(3-phenylpropyl)thieno [2,3-d]pyrimidin-4-amine] | > 10000 nM |
| Cc1cc2c(NCCCc3ccccc3)nc(-c3ncon3)nc2s1 [Example 143, 6-methyl-2-(1,2,4-oxadiazol-3-yl)-N-(3-phenylpropyl)thieno [2,3-d]pyrimidin-4-amine] | 220 nM |
| Cc1nc2c(N[C@@H]3C[C@H]3c3ccc(F)c(F)c3)nc(-c3ccc(C(F)(F)F)cn3)nc2s1 [Example 144, N-((1R,2S)-2-(3,4-difluorophenyl)cyclopropyl)-2-methyl-5-(5-(trifluoromethyl)pyridin-2-yl)thiazolo[5,4-d]pyrimidin-7-amine] | > 10000 nM |
| Cc1nc2c(NCCCc3ccccc3)nc(-c3ccc(C(F)(F)F)cn3)nc2s1 [Example 145, 2-methyl-N-(3-phenylpropyl)-5-(5-(trifluoromethyl)pyridin-2-yl)thiazolo[5,4-d]pyrimidin-7-amine] | 7300 nM |
| Cc1nc2c(N[C@@H]3C[C@H]3c3ccc(F)c(F)c3)nc(-c3ccc(F)cn3)nc2s1 [Example 146, N-((1R,2S)-2-(3,4-difluorophenyl)cyclopropyl)-5-(5-fluoropyridin-2-yl)-2-methylthiazolo[5,4-d]pyrimidin-7-amine] | 5100 nM |
| Cc1nc2c(NCCCc3ccccc3)nc(-c3ccc(F)cn3)nc2s1 [Example 147, 5-(5-fluoropyridin-2-yl)-2-methyl-N-(3-phenylpropyl)thiazolo [5,4-d]pyrimidin-7-amine] | 2100 nM |
| Cc1nc2c(N[C@@H]3C[C@H]3c3ccc(F)c(F)c3)nc(-c3ccncn3)nc2s1 [Example 148, N-((1R,2S)-2-(3,4-difluorophenyl)cyclopropyl)-2-methyl-5-(pyrimidin-4-yl)thiazolo[5,4-d]pyrimidin-7-amine] | > 10000 nM |
| Cc1nc2c(NCCCc3ccccc3)nc(-c3ccncn3)nc2s1 [Example 149, 2-methyl-N-(3-phenylpropyl)-5-(pyrimidin-4-yl)thiazolo[5,4-d]pyrimidin-7-amine] | 2000 nM |
| CCOc1nc(N[C@@H]2C[C@H]2c2ccc(F)c(F)c2)c2cc(C)sc2n1 [Example 150, N-((1R,2S)-2-(3,4-difluorophenyl)cyclopropyl)-2-ethoxy-6-methylthieno[2,3-d]pyrimidin-4-amine] | 380 nM |
| COc1nc(N[C@@H]2C[C@H]2c2ccc(F)c(F)c2)c2cc(C)sc2n1 [Example 151, N-((1R,2S)-2-(3,4-difluorophenyl)cyclopropyl)-2-methoxy-6-methylthieno[2,3-d]pyrimidin-4-amine] | 260 nM |
| Cc1cc2c(NC/C=C/c3ccccc3)nc(C(F)(F)F)nc2s1 [Example 152, N-cinnamyl-6-methyl-2-(trifluoromethyl) thieno[2,3-d] pyrimidin-4-amine] | 440 nM |
| Cc1cc2c(N[C@@H]3C[C@H]3c3ccc(F)c(F)c3)nc(Oc3ccccc3)nc2s1 [Example 153, N-((1R,2S)-2-(3,4-difluorophenyl)cyclopropyl)-6-methyl-2-phenoxythieno[2,3-d]pyrimidin-4-amine] | > 10000 nM |
| Cc1cc2c(NCCCc3ccccc3)nc(Sc3ccccc3)nc2s1 [Example 154, 6-methyl-N-(3-phenylpropyl)-2-(phenylthio)thieno[2,3-d]pyrimidin-4-amine] | > 10000 nM |
| Cc1cc2c(N[C@@H]3C[C@H]3c3ccc(F)c(F)c3)nc(Sc3ccccc3)nc2s1 [Example 155, N-((1R,2S)-2-(3,4-difluorophenyl)cyclopropyl)-6-methyl-2-(phenylthio)thieno[2,3-d]pyrimidin-4-amine] | > 10000 nM |
| Cc1cc2c(NCCCc3ccccc3)nc(N=[N+]=[N-])nc2s1 [Example 156, 2-azido-6-methyl-N-(3-phenylpropyl)thieno [2,3-d]pyrimidin-4-amine] | 160 nM |
| Cc1cc2c(NCCCc3ccncc3)nc(C(F)(F)F)nc2s1 [Example 157, 6-methyl-N-(3-(pyridin-4-yl)propyl)-2-(trifluoromethyl) thieno[2,3-d] pyrimidin-4-amine] | > 10000 nM |
| Cc1cc2c(NCCCc3cccnc3)nc(C(F)(F)F)nc2s1 [Example 158, 6-methyl-N-(3-(pyridin-3-yl)propyl)-2-(trifluoromethyl) thieno[2,3-d] pyrimidin-4-amine] | > 6900 nM |
| Cc1cc2c(NCCCc3ccccn3)nc(C(F)(F)F)nc2s1 [Example 159, 6-methyl-N-(3-(pyridin-2-yl)propyl)-2-(trifluoromethyl)thieno [2,3-d]pyrimidin-4-amine] | > 10000 nM |
| Cc1cc2c(NCCC(c3ccccc3)c3ccccc3)nc(C(F)(F)F)nc2s1 [Example 160, N-(3,3-diphenylpropyl)-6-methyl-2-(trifluoromethyl) thieno[2,3-d] pyrimidin-4-amine] | 1100 nM |

Reference: patent publication US20240279236A1, “COMPOUNDS AND METHODS OF TREATING TUBERCULOSIS” (Fimbrion Therapeutics, Inc., priority 2021, published 2024)
